Experimental data published in US7521458B2, “Spiropiperidylrifamycins for the treatment of mycobacterial infections” (priority 2004, dated 2009).
Read-outs that look alike come from different tables or passages of the source.

Experiments:
Format in all cases: cell-based
[1] = test system: Mycobacterium tuberculosis 4 strains assayed; settings: for % Sensitivity: 4 strains; for n° (sensitive strains): of 4 strains
[2] = test system: Mycobacterium tuberculosis multiresistant 17 strains assayed; settings: for % Sensitivity: 17 strains; for n° (sensitive strains): of 17 strains
[3] = test system: multiresistant Mycobacterium tuberculosis; experiment: microbe, parasite or virus in culture; settings: for sensitivity (of strains): concentration of about 1 μg/ml, all strains of Example 34; for antimycobacterial activity compared with rifampicin and rifabutin: in vitro, in words; for MIC: Mycobacterium tuberculosis
[4] = concentration analized 0.1 μg/ml
[5] = concentration analized 0.5 μg/ml

| Molecule | % Sensitivity [1, 4] | n° (sensitive strains) [1, 4] | % Sensitivity [1, 5] | n° (sensitive strains) [1, 5] | % Sensitivity ([1]; concentration analized 1 μg/ml) | n° (sensitive strains) ([1]; concentration analized 1 μg/ml) | % Sensitivity [2, 4] | n° (sensitive strains) [2, 4] | % Sensitivity [2, 5] | n° (sensitive strains) [2, 5] | % Sensitivity ([2]; concentration analized 1 μg/ml) | n° (sensitive strains) ([2]; concentration analized 1 μg/ml) | sensitivity (of strains) [3] | antimycobacterial activity compared with rifampicin and rifabutin [3] | Sensitivity of strains (S/R) ([1]; concentration analized 1 μg/ml) | Sensitivity of strains (S/R) ([2]; concentration analized 1 μg/ml) | MIC [3] | Sensitivity of strains (S/R) ([2]; concentration analized 0.2 μg/ml) |
| --- | --- | --- | --- | --- | --- | --- | --- | --- | --- | --- | --- | --- | --- | --- | --- | --- | --- | --- |
| 4-deoxo-3,4-[(2R)-2-spiro[2,6-bis(4-fluorophenyl)-4-piperidil]-2,5-dihydro-1H-imidazo]rifamycin S [RFA 5M] | 25% | 1 | 50% | 2 | 100% | 4 | 17% | 3 | 82% | 14 | 100% | 17 | about 100% | much superior to rifampicin and to rifabutin |  |  |  |  |
| CO[C@H]1/C=C/O[C@@]2(C)Oc3c(C)c(O)c4c(c3C2=O)C2=NC3(CCN(CC(C)C)CC3)NC2=C(NC(=O)/C(C)=C\C=C\[C@H](C)[C@H](O)[C@@H](C)[C@@H](O)[C@@H](C)[C@H](OC(C)=O)[C@@H]1C)C4=O [RFB, rifabutin] |  |  |  |  |  |  |  |  |  |  |  |  | about 14.3% |  |  |  |  |  |
| CO[C@H]1/C=C/O[C@@]2(C)Oc3c(C)c(O)c4c(O)c(c(/C=N/N5CCN(C)CC5)c(O)c4c3C2=O)NC(=O)/C(C)=C\C=C\[C@H](C)[C@H](O)[C@@H](C)[C@@H](O)[C@@H](C)[C@H](OC(C)=O)[C@@H]1C [RI, rifampicin] |  |  |  |  |  |  |  |  |  |  |  |  |  |  | R (R means resistent) | R (R means resistent) | > 256 µg/mL |  |
| 4-deoxo-3,4-[(2R)-2-spiro(2,6-diphenyl-4-piperidyl)-2,5-dihydro-1H-imidazo]rifamycin S [RFA 3M] | 25% | 1 | 50% | 2 | 100% | 4 | 23% | 4 | 75% | 13 | 94% | 16 | about 95.2% | much superior to rifampicin and to rifabutin |  |  |  |  |
| NNC(=O)c1ccncc1 [IZ, isoniazid] |  |  |  |  |  |  |  |  |  |  |  |  |  |  |  |  | > 256 µg/mL | R (R means resistent) |
